From patent publication US11932636B2, “RAD51 inhibitors” (Cyteir Therapeutics, Inc., priority 2019, dated 2024) come the findings set out here.

SMILES strings stand for the structures. Some results are limits rather than exact numbers.

For the experiment, the system named is Daudi cells (AID positive). Briefly: Compound primary screening: cell death in AID positive Daudi cells (Cell-Titer Glo, Day 7). It counts as cell-based. Particulars: Homo sapiens, 168 h; Daudi cells, AID positive; cell death on Day 7, Cell-Titer Glo; read-out: Cellular activity in AID + (Daudi). Put shortly:
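AID-positive Daudi cells were seeded at 1250 cells per well and treated with serially diluted compound delivered from a DMSO/media master plate. Cultures were incubated at 37 °C, and cell death was measured on Day 7 with Cell-Titer Glo luminescence.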
Take `CCNS(=O)(=O)c1cc(N2CCC(O)CC2)ccc1-c1cnc([C@H]2CC[C@H](NC(=O)OC(C)C)CC2)s1` [Compound 130, isopropyl trans-N-[4-[5-[2-(ethylsulfamoyl)-4-[4-hydroxypiperidin-1-yl]phenyl]thiazol-2-yl]cyclohexyl]carbamate]: the EC50 is 100 to 1000 nM. In the case of `CCNS(=O)(=O)c1cc(N(C)CCO)ccc1-c1cnc(C2CCC(NC(=O)OC(C)C)CC2)s1` (stereo not drawn) [Compound 131, isopropyl trans-N-[4-[5-[2-(ethylsulfamoyl)-4-[(2-hydroxyethyl) (methyl))amino]phenyl]thiazol-2-yl]cyclohexyl]carbamate], the EC50 is under 100 nM.

As for `CCNS(=O)(=O)c1cc(N(C)CCOC)ccc1-c1cnc(C2CCC(NC(=O)OC(C)C)CC2)s1` (stereo not drawn) [Compound 132, isopropyl trans-N-[4-[5-[2-(ethylsulfamoyl)-4-[(2-methoxyethyl) (methyl))amino]phenyl]thiazol-2-yl]cyclohexyl]carbamate], the EC50 lay in the range of 100 to 1000 nM.

As to `CCNS(=O)(=O)c1cc(N2CCS(=O)(=O)CC2)ccc1-c1cnc([C@H]2CC[C@H](NC(=O)OC(C)C)CC2)s1` [Compound 133, isopropyl trans-N-[4-[5-[2-(ethylsulfamoyl)-4-[1,1-dioxidothiomorpholino]phenyl]thiazol-2-yl]cyclohexyl]carbamate], the EC50 fell in the range of 1000 to 10000 nM.

Regarding `CCNS(=O)(=O)c1cc(N2CCOCC2)ccc1-c1cnc([C@H]2CC[C@H](NC(=O)OC(C)C)CC2)s1` [Compound 134, isopropyl trans-N-[4-[5-[2-(ethylsulfamoyl)-4-[morpholino]phenyl]thiazol-2-yl]cyclohexyl]carbamate], the EC50 was in the range of 100 to 1000 nM.

Take `CCNS(=O)(=O)c1cc(N2CCCCC2)ccc1-c1cnc([C@H]2CC[C@H](NC(=O)OC(C)C)CC2)s1` [Compound 135, isopropyl trans-N-[4-[5-[2-(ethylsulfamoyl)-4-[piperidin-1-yl]phenyl]thiazol-2-yl]cyclohexyl]carbamate]: the EC50 lay in the range of 100 to 1000 nM.

In the case of `CCNS(=O)(=O)c1cc(Nc2ccnc(C(C)C)n2)ccc1-c1cnc([C@H]2CC[C@H](NC(=O)OC(C)C)CC2)s1` [Compound 136, isopropyl trans-N-[4-[5-[2-(ethylsulfamoyl)-4-[(2-isopropylpyrimidin-4-yl)amino]phenyl]thiazol-2-yl]cyclohexyl]carbamate], the EC50 was under 100 nM. As for `CCNS(=O)(=O)c1cc(NC2COC2)ccc1-c1cnc([C@H]2CC[C@H](NC(=O)OC(C)C)CC2)s1` [Compound 137, isopropyl trans-N-[4-[5-[2-(ethylsulfamoyl)-4-[(oxetan-3-yl)amino]phenyl]thiazol-2-yl]cyclohexyl]carbamate], the EC50 is under 100 nM. For the compound `CCNS(=O)(=O)c1cc(Nc2cncn2C(C)C)ccc1-c1cnc([C@H]2CC[C@H](NC(=O)OC(C)C)CC2)s1` [Compound 138, isopropyl trans-N-[4-[5-[2-(ethylsulfamoyl)-4-[(3-isopropylimidazol-4-yl)amino]phenyl]thiazol-2-yl]cyclohexyl]carbamate], the EC50 lay within 100 to 1000 nM. Then `CCNS(=O)(=O)c1cc(Nc2cn(C(C)C)cn2)ccc1-c1cnc([C@H]2CC[C@H](NC(=O)OC(C)C)CC2)s1` [Compound 139, isopropyl trans-N-[4-[5-[2-(ethylsulfamoyl)-4-[(1-isopropyl-1H-imidazol-4-yl)amino]phenyl]thiazol-2-yl]cyclohexyl]carbamate], with under 100 nM. In the case of `CCNS(=O)(=O)c1cc(Nc2cncc(C(C)C)n2)ccc1-c1cnc([C@H]2CC[C@H](NC(=O)OC(C)C)CC2)s1` [Compound 140, isopropyl trans-N-[4-[5-[2-(ethylsulfamoyl)-4-[(6-isopropylpyrazin-2-yl)amino]phenyl]thiazol-2-yl]cyclohexyl]carbamate] it was 100 to 1000 nM.
